{"source": "patent US20240287553A1", "about": "“Methods of Production of Double Unsaturated Pheromones Using Metabolic Pathways” (ISCA Technologies, Inc., priority 2022, published 2024)", "key": {"[1]": {"tested_on": "antennae of male P. interpunctella", "test": "GC-EAD electrophysiology of yeast-produced pheromone, male Plodia interpunctella antennae", "details": "extracts of yeast cell pellet and medium", "method": "(§1) Insect rearing and tissue collection. The E. cautella individuals were reared on an artificial diet at 25±2.0° C. under an L16:D8 photoperiod as previously described in the field. Freshly emerged female adults were collected daily before the scotophase and considered to be 0 d old. The female pupae were collected separately, and the newly emerged adults were maintained in a vial under the same conditions. Laboratory cultures of S. exigua and P. interpunctella were reared at 23±1° C. under a 17:7 L:D photoperiod and 60% relative humidity and fed on wheat-germs based and beans based artificial diet, respectively. The male and female pupae were kept separately. Adults were fed with a 10% honey solution, and two- to three-day-old unmated males were used for the electrophysiological experiments.\nElectrophysiology of ZETA yeast produced pheromone. The antennal electrophysiological activity of the yeast-derived pheromone was tested by gas chromatography with electroantennographic detection (GC-EAD). An Agilent 7890 gas chromatograph equipped with a flame ionization detector (FID), an HP-INNOWax column (30 m×0.25 mm i.d., and 0.25 μm film thickness; J&W Scientific, USA) was used. Antennae of male S. exigua and P. interpunctella with both tips cut-off and associated with the head were mounted on a PRG-2 EAG (10× gain) probe (Syntech, Kirchzarten, Germany) using conductive gel (Blågel, Cefar, Malmö, Sweden). The antennal preparation was put in a flow of charcoal-filtered and humidified air that passed through the column outlet. Hydrogen was used as the carrier gas with a constant flow of 1.8 mL/min, and the GC effluent was directed to the FID and EAD by a 1:1 division. The GC inlet was set at 250° C., the transfer line was set at 255° C., and the detector was set at 280° C. The GC oven was programmed from 80° C. for 1 min, then increased to 210° C. at a rate of 10° C./min and held for 10 min. Data were collected with the software GC-EAD Pro Version 4.1 (Syntech)."}, "[2]": {"tested_on": "antennae of male S. exigua", "test": "GC-EAD electrophysiology of yeast-produced pheromone, male Spodoptera exigua antennae", "details": "extracts of yeast cell pellet and medium", "method": "as §1\nElectrophysiology of ZETA yeast produced pheromone. The antennal electrophysiological activity of the yeast-derived pheromone was tested by gas chromatography with electroantennographic detection (GC-EAD). An Agilent 7890 gas chromatograph equipped with a flame ionization detector (FID), an HP-INNOWax column (30 m×0.25 mm i.d., and 0.25 μm film thickness; J&W Scientific, USA) was used. […]"}}, "note": "Entries after “also recorded” stand apart in the source; their conditions may differ."}
{"compound": "CCCC/C=C\\CCCCCCCCOC(C)=O", "note": "[Z9-14:OAc, (Z)-9-tetradecenyl acetate]", "values": [{"measurement": "antennal response (EAD)", "setting": "[1]", "value": "responded strongly"}, {"measurement": "antennal response (EAD)", "setting": "[2]", "value": "responded strongly"}]}
{"compound": "C/C=C/C/C=C\\CCCCCCCCOC(C)=O", "note": "[ZETA, (Z,E)-9,12-tetradecadienyl acetate]", "values": [{"measurement": "antennal response (EAD)", "setting": "[1]", "value": "distinct antennal responses; also recorded: responded strongly; also recorded: typical antennal responses"}, {"measurement": "antennal response (EAD)", "setting": "[2]", "value": "distinct antennal responses; also recorded: responded strongly; also recorded: typical antennal responses"}]}
{"compound": "CCCCCCCCCCCCCCOC(C)=O", "note": "[tetradecanyl acetate]", "values": [{"measurement": "antennal response (EAD)", "setting": "[1]", "value": "minor response"}]}
